Experimental data as given in US20140010806A1, “Treatment of Ocular Diseases” (priority 2012, published 2014).

Biological target: NF-κB
Experiment: NF-κB-bla THP-1 β-lactamase reporter assay, activation of NF-κB by TNFα or LPS
Assay type: cell-based, human
Conditions: positive control assays; 1 hour β-lactamase substrate incubation
Description: Reduction of inflammation. Inhibition of NF-κB by 17α-ethynylandrost-5-ene-3β,7β,17β-triol in vitro. A number of compounds were used to inhibit activation of NF-κB by TNF-α or LPS in human cells in vitro. Activation of NF-κB increases expression of a number of genes that mediate inflammation. This protocol used human THP-1 cells, which are human mononuclear blood cells with a monocyte phenotype. The cell line, referred to as NF-κB-bla THP-1, contained a β-lactamase reporter gene under the control of the NF-κB response element (Invitrogen, CellSensor™, product No. K1176). In this cell line, the β-lactamase reporter gene is stably integrated in the THP-1 cells. This cell line was used to detect agonists or antagonists of the NF-κB signaling pathway. These NF-κB-bla THP-1 cells respond to the presence of tumor necrosis factor alpha (TNFα) or bacterial lipopolysaccharide (LPS) by increased expression of the β-lactamase reporter gene. The level of β-lactamase enzyme activity was measured by fluorescence resonance energy transfer ratiometric detection. […]
The NF-κB-bla THP-1 cells were maintained by passaging or feeding as needed. […] The cells were plated at 20,000 cells/well in a 384-well Black-wall, clear bottom assay plates (Costar #3712-TC low fluorescence background plates) approximately 24 hours before adding either TNFα at 10 ng/mL or LPS at 0.2 ng/mL to activate NF-κB. […]

For TNFα, the “EC50 concentration for TNFα, activation of NF-κB” value was 0.20 ng/mL.
